Measured values reported in patent publication US11717569B2, “Tolerogenic synthetic nanocarriers” (Selecta Biosciences, Inc., priority 2011, dated 2023).

Key:
[1] = test system: Treg cells (CD4+CD25highFoxP3+); assay: Antigen-specific tolerogenic dendritic cells (tDC) activity on Treg cell development; assay type: cell-based, OTII mice; conditions: FIG. 3; unstimulated 1.3%
Procedure: The assay included the use of OTII mice which have a transgenic T cell receptor specific for an immune-dominant ovalbumin peptide (323-339). In order to create antigen-specific tDCs, CD11c^+ splenocytes were isolated, and the ovalbumin peptide (323-339) added in vitro at 1 μg/ml or no antigen. Soluble or nanocarrier-encapsulated rapamycin was then added to the DCs for 2 hours which were then washed extensively to remove free rapamycin from the culture. Purified responder CD4^+CD25^− cells were isolated from OTII mice and added to tDC at a 10:1 T to DC ratio. The mixture of tDC and OTII T cells were then cultured for 4-5 days, and the frequency of Treg cells (CD4^+CD25highFoxP3^+) were analyzed by flow cytometry as shown in FIG. 1. Regions were selected based on isotype controls.
Free rapamycin or synthetic nanocarriers containing rapamycin were combined with free soluble Ovalbumin (323-339) to evaluate induction of tDC (FIG. 2). […] Briefly, antigen specific tDC were obtained by isolating dendritic cells (CD11c^+ splenocytes) and culturing them in combination with the Ovalbumin (323-339) peptide plus soluble or nanocarrier encapsulated rapamycin (Synthetic Nanocarrier #s 13, 14, 15 and 16) for 2 hours followed by extensive washing. […] The mixture of tDC and OTII T cells were then cultured for 4-5 days, and the frequency of Treg cells (CD4^+CD25highFoxP3^+) were analyzed by flow cytometry.

iNKT cells = assay: CD69 activation on liver iNKT cells in vivo; conditions: mice that received aGC
Procedure: Mice were designated to groups that received PBS alone, sol aGC+solRAPA, sol aGC+NP RAPA. Mice were injected at 9 am and at 9.30 AM received BrefeldinA i.v. to prevent release of intracellular cytokines produced. At 1 pm, mice were sacrificed and the liver was perfused with PBS and processed to obtain a single cell suspension enriched for lymphocytes. Cells were stained with cell surface markers for iNKT cells (agc-loaded CD1d tetramers) and T cells receptor (TCRb) and activation marker CD69. Cells were acquired on a FacsCanto flow cytometer and analyzed on by FlowJo.

SMILES	induction of FoxP3 expressing cells [1]	iNKT cell activation (cytokine production and up regulation of CD69) (iNKT cells)
CO[C@H]1C[C@@H]2CC[C@@H](C)[C@@](O)(O2)C(=O)C(=O)N2CCCC[C@H]2C(=O)O[C@H]([C@H](C)C[C@@H]2CC[C@@H](O)[C@H](OC)C2)CC(=O)[C@H](C)/C=C(\C)[C@@H](O)[C@@H](OC)C(=O)[C@H](C)C[C@H](C)/C=C/C=C/C=C/1C [free rapamycin, Rapamycin]	2.7%	
CCCCCCCCCCCCCCCCCCCCCCCCCC(=O)N[C@@H](CO[C@H]1O[C@H](CO)[C@H](O)[C@H](O)[C@H]1O)[C@H](O)[C@H](O)CCCCCCCCCCCCCC [aGC, α-Galactosyl Ceramide (KRN7000)]		activated
